Measured values taken from patent publication US20090221624A1, “4-AMINOQUINOLINE COMPOUNDS FOR TREATING VIRUS-RELATED CONDITIONS” (priority 2005, published 2009).

Key:
[1] = in vitro
[2] = system: SINV (SR19-F-luc cells); assay: SINV antiviral activity, SR19-F-luc cells, Firefly luciferase; type: cell-based; details: Sindbis virus; for inhibition at 25 µM: primary screening, 25 μM final concentration, 24 hours, percent inhibition of viral replication, read-out: SINV Inh; for EC50: secondary screening, SR19-F-luc cells
[3] = system: HCV replicon (Clone A cells, Huh7, subgenomic hepatits C virus RNA); assay: HCV Neo screening assay (HCV replicon, NPTII ELISA); type: cell-based, hepatitis C virus; details: for EC50 / inhibition at 25 µM: Hepatitis C virus, Huh-7; for EC50: Secondary Data, HCV; for inhibition at 25 µM: primary screening, 25 μM final concentration, 24 hours, percent inhibition of viral replication, read-out: HCV Inh; for HCV TI: therapeutic index CC50/EC50, HCV
[4] = system: WNV (WN-hRuPac cells); assay: WNV antiviral activity, WN-hRuPac cells, Renilla luciferase; type: cell-based, West Nile virus; details: for EC50 / inhibition at 25 µM: West Nile virus; for EC50: Secondary Data, WNV, read-out: WNV EC50; for inhibition at 25 µM: primary screening, 25 μM final concentration, 24 hours, percent inhibition of viral replication, read-out: WNV Inh; for WNV TI: therapeutic index CC50/EC50, WNV
[5] = system: YFV (YF-hRuPac cells); assay: microbe, parasite or virus in culture; type: cell-based, yellow fever virus; details: for inhibition at 25 µM / EC50: Yellow fever virus; for inhibition at 25 µM: 24 h, read-out: YFV Inh; for EC50: read-out: YFV EC50
[6] = system: EBOV minigenome; assay: microbe, parasite or virus in culture; type: cell-based, Ebola virus; details: Zaire ebolavirus; for inhibition at 25 µM: 24 h, read-out: EBOV Inh; for EC50: read-out: EBOV EC50
[7] = system: RSV minigenome; assay: RSV minigenome-dependent β-galactosidase expression assay (RSV β-Gal); type: cell-based, respiratory syncytial virus; details: for EC50 / inhibition at 25 µM: human respiratory syncytial virus; for EC50: Secondary Data, RSV, read-out: RSV EC50; for inhibition at 25 µM: primary screening, 25 μM final concentration, 24 hours, percent inhibition of viral replication, read-out: RSV Inh; for RSV TI: therapeutic index CC50/EC50, RSV
[8] = system: DNG (D2-hRuPac cells); assay: DNG antiviral activity, D2-hRuPac cells, Renilla luciferase; type: cell-based, Dengue fever virus; details: Dengue virus, secondary screening

Compound	CC50 ([1]; DNG CC50) [µM]	CC50 ([1]; EBOV CC50) [µM]	CC50 ([1]; HCV CC50) [µM]	CC50 ([1]; RSV CC50) [µM]	CC50 ([1]; SINV CC50) [µM]	CC50 ([1]; WNV CC50) [µM]	CC50 ([1]; YFV CC50) [µM]	inhibition at 25 µM [2] [%]	EC50 [2] [µM]	inhibition at 25 µM [3] [%]	EC50 [4] [µM]	inhibition at 25 µM [4] [%]	WNV TI [4]	inhibition at 25 µM [5] [%]	EC50 [5] [µM]	inhibition at 25 µM [6] [%]	EC50 [6] [µM]	EC50 [7] [µM]	inhibition at 25 µM [7] [%]	RSV TI [7]	other results
CCOc1ccc2nc(C)cc(Nc3ccc(Br)cc3)c2c1 [Compound 41]	28.8	28.8	3.01	28.8	28.8	28.8	28.8	97.2	2.96	117	7.4	100	3.89	96.5	3.61	95.2	75	2.04	99.4	14.11	EC50 [3]: 4 µM; HCV TI [3]: 0.75; YFV TI [5]: 7.97; EC50 [8]: 7.91 µM
Cc1cc(Nc2cccc(Cl)c2C)c2cccc(C)c2n1 [Compound 65]	≥ 75	≥ 75	13	≥ 75	≥ 75	≥ 75	≥ 75	72.2	≥ 75	114	5.72	80.6	13.11	76.3	≥ 75	81.8	48.8	1.95	96.6	38.46	EC50 [3]: 8.48 µM; HCV TI [3]: 1.53; EC50 [8]: ≥ 75 µM
CCOC(=O)c1cnc2ccc(OCC)cc2c1Nc1ccccc1CC [Compound 34]	61.9	61.9	35.6	61.9	61.9	61.9	61.9	34	≥ 75	78.6	39.1	60.4	1.58	58.5	23	53.8	75	5.08	77.3	12.19	EC50 [3]: 11.4 µM; HCV TI [3]: 3.12; YFV TI [5]: 2.69; EC50 [8]: ≥ 75 µM
CC(=O)c1cccc(Nc2cc(C)nc3c(C)cc(C)cc23)c1 [Compound 48]	25.6	25.6	14.1	25.6	25.6	25.6	25.6	70.3	2.47	151	21.3	58.5	1.2	62.1	15.9	29.4	26.4	8.32	78	3.08	EC50 [3]: 10 µM; HCV TI [3]: 1.41; YFV TI [5]: 1.61; EC50 [8]: 10.5 µM
Cc1cc(Nc2cccc(C(F)(F)F)c2)c2cc(Cl)ccc2n1 [Compound 40]	60	60	5.53	60	60	60	60	69.5	14.4	96.1	8.39	65.6	7.15	79.6	6.45	26.3	75	2.43	99.3	24.68	EC50 [3]: 5.55 µM; HCV TI [3]: 1; YFV TI [5]: 9.3; EC50 [8]: 40.6 µM
CCOC(=O)c1ccc2nc(C)cc(Nc3ccc(C)cc3C)c2c1 [Compound 51]	56.1	56.1	21.4	56.1	56.1	56.1	56.1	51.9	13.7	55.5	16	49	3.5	41.8	15.5	33.7	52.6	3.72	75.5	15.07	EC50 [3]: 11.3 µM; HCV TI [3]: 1.89; YFV TI [5]: 3.62; EC50 [8]: 61 µM
CCOC(=O)c1cnc2c(OC)cccc2c1NCC(C)O (stereo not shown) [Compound 69]	34.6	34.6	≥ 75	34.6	34.6	34.6	34.6	60.9	37.1	19.8	13.7	44.6	2.53	70.1	25.7	64.4	57.6	2.21	98.3	15.67	YFV TI [5]: 1.35; EC50 [8]: 44 µM
CCOC(=O)c1cnc2c(Cl)cc(Cl)cc2c1NCc1ccco1 [Compound 52]	44.1	44.1	70.2	44.1	44.1	44.1	44.1	10.2	24.8	76.5	10.8	88.9	4.08	90	4.99	76.9	13.2	2.51	99.1	17.57	EC50 [3]: 12.5 µM; HCV TI [3]: 5.62; YFV TI [5]: 8.84; EC50 [8]: 15.8 µM
c1ccc2cc(Nc3c4ccccc4nc4ccccc34)ccc2c1 [Compound 1]	47.6	47.6	3.83	47.6	47.6	47.6	47.6	34.1	28.1	177	5.7	65.4	8.34	77.5	6.34	39.8	35.8	1.89	99.9	25.16	EC50 [3]: 6.52 µM; HCV TI [3]: 0.59; YFV TI [5]: 7.5; EC50 [8]: 7.17 µM
C=CCNc1c2c(nc3ccccc13)CCC2 [Compound 12]	71.7	71.7	71	71.7	71.7	71.7	71.7	69.4	6.89	10.3	19.5	47.5	3.68	31.3	61.2	49.8	45.4	6.42	31	11.17	YFV TI [5]: 1.17; EC50 [8]: 69.2 µM
Cc1cc(C)c2nc(C)cc(Nc3ccc(OCc4ccccc4)cc3)c2c1 [Compound 44]	27.4	27.4	5.05	27.4	27.4	27.4	27.4	95.8	3.57	94.7	4.29	99.9	6.39	100	2.26	99.6	75	3.88	98.9	7.06	EC50 [3]: 2.93 µM; HCV TI [3]: 1.72; YFV TI [5]: 12.12; EC50 [8]: 3.39 µM
Cc1cc(C)c2nc(C)cc(NCc3ccco3)c2c1 [Compound 54]	50.2	50.2	23.9	50.2	50.2	50.2	50.2	47.8	38.3	101	6.91	84.4	7.26	91.1	4.14	38.4	75	5.8	87.9	8.66	EC50 [3]: 26 µM; HCV TI [3]: 0.92; YFV TI [5]: 12.13; EC50 [8]: 21.9 µM
